Measurements published in patent US20190194209A1, “PYRAZOLE CARBOXAMIDE COMPOUNDS AND METHODS OF USE” (Genentech, Inc., priority 2014, published 2019).

Legend:
[1] = target: T1, full length human wildtype Btk (Homo sapiens, UniProt Q06187); experiment: Biochemical Btk Kinase Assay (Example 901); settings: read-out: BTK LC3K (Ki)
T1 construct: V5 (C); 6xHis (C); made in house; host or cells: Sf9 cells (baculovirus, pFastBac)
Description: Formula I compounds were tested by a standard biochemical Btk, Kinase Assay (Example 901). A generalized procedure for a standard biochemical Btk, Kinase Assay that can be used to test Formula I compounds is as follows. A master mix minus Btk enzyme is prepared containing 1× Cell Signaling kinase buffer (25 mM Tris-HCl, pH 7.5, 5 mM beta-glycerophosphate, 2 mM dithiothreitol, 0.1 mM Na3VO4, 10 mM MgCl2), 0.5 μM Promega PTK Biotinylated peptide substrate 2, and 0.01% BSA. A master mix plus Btk enzyme is prepared containing 1× Cell Signaling kinase buffer, 0.5 μM (micromolar) PTK Biotinylated peptide substrate 2, 0.01% BSA, and 100 ng/well (0.06 mU/well) Btk enzyme. Btk enzyme is prepared as follows: full length human wildtype Btk (accession number NM-000061) with a C-terminal V5 and 6×His tag was subcloned into pFastBac® vector (Invitrogen/Life Technologies) for making baculovirus carrying this epitope-tagged Btk. Generation of baculovirus is done based on Invitrogen's instructions detailed in its published protocol “Bac-to-Bac Baculovirus Expression Systems” (Invitrogen/Life Technologies, Cat. Nos. 10359-016 and 10608-016). Passage 3 virus is used to infect Sf9 cells to overexpress the recombinant Btk protein. The Btk protein is then purified to homogeneity using Ni-NTA column. The purity of the final protein preparation is greater than 95% based on the sensitive Sypro-Ruby staining. A solution of 200 μM ATP is prepared in water and adjusted to pH 7.4 with 1N NaOH. A quantity of 1.25 μL (microliter) of compounds in 5% DMSO is transferred to a 96-well 2 area Costar polystyrene plate. Compounds are tested singly and with an 11-point dose-responsive curve (starting concentration is 10 μM; 1:2 dilution). A quantity of 18.75 μL of master mix minus enzyme (as a negative control) and master mix plus enzyme is transferred to appropriate wells in 96-well 2 area costar polystyrene plate. 5 μL of 200 μM ATP is added to that mixture in the 96-well 2 area Costar polystyrene plate for final ATP concentration of 40 μM. The reaction is allowed to incubate for 1 hour at room temperature. The reaction is stopped with Perkin Elmer 1× detection buffer containing 30 mM EDTA, 20 nM SA-APC, and 1 nM PT66 Ab. The plate is read using time-resolved fluorescence with a Perkin Elmer Envision using excitation filter 330 nm, emission filter 665 nm, and 2nd emission filter 615 nm. IC50 values are subsequently calculated. Alternatively, the Lanthascreen assay can be used to evaluate Btk activity through quantification of its phosphorylated peptide product. The FRET (Fluorescence Resonance Energy Transfer) that occurs between the fluorescein on the peptide product and the terbium on the detection antibody decreases with the addition of inhibitors of Btk that reduce the phosphorylation of the peptide. In a final reaction volume of 25 μL (microliters), Btk (h) (0.1 ng/25 μl reaction) is incubated with 50 mM Hepes pH 7.5, 10 mM MgCl2, 2 mM MnCl2, 2 mM DTT, 0.2 mM NaVO4, 0.01% BSA, and 0.4 uM fluorescein poly-GAT. The reaction is initiated by the addition of ATP to 25 μM (micromolar) the Km of ATP. After incubation for 60 minutes at room temperature, the reaction is stopped by the addition of a final concentration of 2 nM Tb-PY20 detection antibody in 60 mM EDTA for 30 minutes at room temperature. Detection is determined on a Perkin Elmer Envision with 340 nm excitation and emission at 495 nm and 520 nm. Exemplary Btk inhibition […] values are in Table 1.

[2] = tested on: CD69 production by B lymphocytes in human whole blood activated with goat F(ab')2 anti-human IgM; experiment: CD69 Whole Blood Assay (Example 907); type: cell-based; settings: Lymphocyte; human whole blood, anti-IgM stimulated, 20 hour incubation, CD20 positive cells, FACS; read-out: CD69 Hu Blood FACS (IC70)
Excerpt: A CD69 Whole Blood Assay can be conducted on Formula I compounds to determine the ability of compounds to inhibit the production of CD69 by B lymphocytes in human whole blood activated by crosslinking surface IgM with goat F(ab′)2 anti-human IgM (Example 907). CD69 is a type II C-type lectin involved in lymphocyte migration and cytokine secretion. CD69 expression represents one of the earliest available indicators of leukocyte activation and its rapid induction occurs through transcriptional activation (Vazquez et al (2009) Jour. of Immunology Published Oct. 19, 2009, doi: 10.4049/jimmunol.0900839). Concentration-dependent inhibition of antigen receptor stimulation by selective Btk inhibitors induces cell surface expression of the lymphocyte activation marker CD69 (Honigberg et al (2010) Proc. Natl. Acad. Sci. 107(29):13075-13080). Thus, CD69 inhibition by selective Btk inhibitors may be correlated with therapeutic efficacy of certain B-cell disorders.
Human blood is obtained from healthy volunteers, with the following restrictions: 1 week drug-free, non-smokers. Blood (approximately 20 mls to test 8 compounds) is collected by venipuncture into Vacutainer® (Becton, Dickinson and Co.) tubes with sodium heparin.
Solutions of Formula I compounds at 10 mM in DMSO are diluted 1:10 in 100% DMSO, then are diluted by three-fold serial dilutions in 100% DMSO for a ten point dose-response curve. The compounds are further diluted 1:10 in PBS and then an aliquot of 5.5 μl of each compound is added in duplicate to a 2 ml 96-well plate; 5.5 μl of 10% DMSO in PBS is added as control and no-stimulus wells. Human whole blood—HWB (100 μl) is added to each well. After mixing the plates are incubated at 37° C., 5% CO2, 100% humidity for 30 minutes. Goat F(ab′)2 anti-human IgM (10 μl of a 500 μg/ml solution, 50 μg/ml final) is added to each well (except the no-stimulus wells) with mixing and the plates are incubated for an additional 20 hours. At the end of the 20 hour incubation, samples are incubated with fluorescent labeled antibodies for 30 minutes, at 37° C., 5% CO2, 100% humidity. Include induced control, unstained and single stains for compensation adjustments and initial voltage settings. Samples are then lysed with PharM Lyse™ (BD Biosciences Pharmingen) according to the manufacturer's instructions. Samples are then transferred to a 96 well plate suitable to be run on the BD Biosciences HTS 96 well system on the LSRII machine. Data acquired and Mean Fluorescence Intensity values were obtained using BD Biosciences DIVA Software. Results are initially analyzed by FACS analysis software (Flow Jo).

T1 sequence (Q06187 whole entry): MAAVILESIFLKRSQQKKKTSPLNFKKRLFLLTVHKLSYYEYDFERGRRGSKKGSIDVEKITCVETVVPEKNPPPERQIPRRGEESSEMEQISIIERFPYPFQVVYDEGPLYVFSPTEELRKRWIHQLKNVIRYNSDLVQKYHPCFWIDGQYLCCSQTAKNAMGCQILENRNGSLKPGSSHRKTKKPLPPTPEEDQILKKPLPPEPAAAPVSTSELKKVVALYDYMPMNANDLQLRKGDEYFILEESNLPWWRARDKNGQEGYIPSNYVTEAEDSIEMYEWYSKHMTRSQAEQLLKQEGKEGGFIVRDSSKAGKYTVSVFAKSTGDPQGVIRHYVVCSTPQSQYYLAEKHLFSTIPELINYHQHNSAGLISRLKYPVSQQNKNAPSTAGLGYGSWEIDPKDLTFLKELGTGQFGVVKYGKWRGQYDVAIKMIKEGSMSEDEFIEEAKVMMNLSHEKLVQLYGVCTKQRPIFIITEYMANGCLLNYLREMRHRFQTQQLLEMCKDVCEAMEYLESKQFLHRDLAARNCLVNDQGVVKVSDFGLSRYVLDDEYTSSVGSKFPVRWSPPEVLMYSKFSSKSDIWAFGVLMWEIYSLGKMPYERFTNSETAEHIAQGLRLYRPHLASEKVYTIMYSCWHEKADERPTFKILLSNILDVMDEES

Compound	Ki [1] [µM]	IC70 [2] [µM]
CC1(C)Cc2cc3n(c2C1)CCN(c1nccc(-n2cc(C(N)=O)c(NC(=O)[C@@H]4C[C@@H]4F)n2)c1CO)C3=O [Example 112, 1-[2-(7,7-dimethyl-4-oxo-1,2,6,8-tetrahydrocyclopenta[3,4]pyrrolo[3,5-b]pyrazin-3-yl)-3-(hydroxymethyl)-4-pyridyl]-3-[(2-fluorocyclopropanecarbonyl)amino]pyrazole-4-carboxamide]	0.000436	0.1
Cn1cc(Nc2nn(-c3cccc(N4CCn5c(cc6c5CC(C)(C)C6)C4=O)c3CO)cc2C(N)=O)nn1 [Example 105, 1-[3-(7,7-dimethyl-4-oxo-1,2,6,8-tetrahydrocyclopenta[3,4]pyrrole[3,5-b]pyrazin-3-yl)-2-(hydroxymethyl)phenyl]-3-[(1-methyltriazol-4-yl)amino]pyrazole-4-carboxamide]	0.000326	0.0323
Cn1cc(Nc2nn(-c3ccnc(-n4ncc5cc(C(C)(C)C)cc(F)c5c4=O)c3CO)cc2C(N)=O)nn1 [Example 111, 1-[2-(6-tert-butyl-8-fluoro-1-oxo-phthalazin-2-yl)-3-(hydroxymethyl)-4-pyridyl]-3-[(1-methyltriazol-4-yl)amino]pyrazole-4-carboxamide]	0.000131	0.0773
Cn1cc(-c2nn(-c3ccnc(-n4ncc5cc(C(C)(C)C)cc(F)c5c4=O)c3CO)cc2C(N)=O)cn1 [Example 115, 1-[2-(6-tert-butyl-8-fluoro-1-oxo-phthalazin-2-yl)-3-(hydroxymethyl)-4-pyridyl]-3-(1-methylpyrazol-4-yl)pyrazole-4-carboxamide]	0.000997	0.268
CC(C)(C)c1cc(F)c2c(=O)n(-c3nccc(-n4cc(C(N)=O)c(Nc5ccc(N6CCNCC6)cn5)n4)c3CO)ncc2c1 [Example 118, 1-[2-(6-tert-butyl-8-fluoro-1-oxo-phthalazin-2-yl)-3-(hydroxymethyl)-4-pyridyl]-3-[(5-piperazin-1-yl-2-pyridyl)amino]pyrazole-4-carboxamide]	0.000248	0.574

Further lines, with some results ahead:

Ki [1] [µM]	Compound	IC70 [2] [µM]
0.0024	CC1(C)Cc2cc3n(c2C1)CCN(c1nccc(-n2cc(C(N)=O)c(Nc4ccccc4)n2)c1CO)C3=O [Example 101, 3-anilino-1-[2-(7,7-dimethyl-4-oxo-1,2,6,8-tetrahydrocyclopenta[3,4]pyrrolo[3,5-b]pyrazin-3-yl)-3-(hydroxymethyl)-4-pyridyl]pyrazole-4-carboxamide]	0.0369
0.00332	CC1(C)Cc2cc3n(c2C1)CCN(c1nccc(-n2nc(C(N)=O)c4cccnc42)c1CO)C3=O [Example 110, 1-[2-(7,7-dimethyl-4-oxo-1,2,6,8-tetrahydrocyclopenta[3,4]pyrrolo[3,5-b]pyrazin-3-yl)-3-(hydroxymethyl)-4-pyridyl]pyrazolo[3,4-b]pyridine-3-carboxamide]	5.3
0.0013	Cn1cc(-c2nn(-c3cc(F)cc(-n4ncc5cc(C(C)(C)C)cc(F)c5c4=O)c3CO)cc2C(N)=O)cn1 [Example 127, 1-[3-(6-tert-butyl-8-fluoro-1-oxo-phthalazin-2-yl)-5-fluoro-2-(hydroxymethyl)phenyl]-3-(1-methylpyrazol-4-yl)pyrazole-4-carboxamide]	5
0.000565	CC1(C)Cc2cc3n(c2C1)CCN(c1nccc(-n2cc(C(N)=O)c(Nc4ccccn4)n2)c1CO)C3=O [Example 103, 1-[2-(7,7-dimethyl-4-oxo-1,2,6,8-tetrahydrocyclopenta[3,4]pyrrole[3,5-b]pyrazin-3-yl)-3-(hydroxymethyl)-4-pyridyl]-3-(2-pyridylamino)pyrazole-4-carboxamide]	0.127
0.000924	CC1(C)Cc2cc3n(c2C1)CCN(c1nccc(-n2cc(NC(=O)C4CC4)c(C(N)=O)n2)c1CO)C3=O [Example 109, 4-(cyclopropanecarbonylamino)-1-[2-(7,7-dimethyl-4-oxo-1,2,6,8-tetrahydrocyclopenta[3,4]pyrrolo[3,5-b]pyrazin-3-yl)-3-(hydroxymethyl)-4-pyridyl]pyrazole-3-carboxamide]	0.0474
0.00115	CC(C)(C)c1cc(F)c2c(=O)n(-c3nccc(-n4cc(C(N)=O)c(-c5cnn(C(F)F)c5)n4)c3CO)ncc2c1 [Example 121, 1-[2-(6-tert-butyl-8-fluoro-1-oxo-phthalazin-2-yl)-3-(hydroxymethyl)-4-pyridyl]-3-[1-(difluoromethyl)pyrazol-4-yl]pyrazole-4-carboxamide]	1.4
